Reference: patent publication US10266535B2, “Inhibitor of FLT3 kinase and use thereof” (HEFEI INSTITUTES OF PHYSICAL SCIENCE, CHINESE ACADEMY OF …, priority 2015, dated 2019)
Where a name gives a salt, the structure may show the parent alone. Read-outs that look alike come from different tables or passages of the source.

Legend:
[1] = system: MV4-11 (expressing FLT3/ITD mutant gene); assay: Cell proliferation, Cell Titer-Glo, MV4-11; format: cell-based; conditions: Homo sapiens
Procedure: (§1) The above cell lines were constructed by our laboratory.
(§2) The number of viable cells was determined by quantification of ATP in living cells using the Cell Titer-Glo® (Promega, USA) chemiluminescence cell viability assay kit.

[2] = system: TEL-BaF3-FLT3/ITD (stably expressing FLT3/ITD mutant activated kinase); assay: Cell proliferation, Cell Titer-Glo, TEL-BaF3-FLT3/ITD; format: cell-based, mouse
Procedure: as §1, §2

[3] = system: pro-B cell BaF3; assay: Cell proliferation, Cell Titer-Glo, BaF3; format: cell-based; conditions: Mus musculus, incubated for 72 hours
Procedure: as §1, §2

[4] = system: U937 (expressing wild-type FLT3 gene); assay: Cell proliferation, Cell Titer-Glo, U937; format: cell-based, human; conditions: Homo sapiens, U-937, 72 h, incubated for 72 hours; read-out: U937 IC50
Procedure: as §1, §2

[5] = system: MOLM-13 (expressing FLT3/ITD mutant gene and wild-type FLT3 gene); assay: Cell proliferation, Cell Titer-Glo, MOLM-13; format: cell-based; conditions: Homo sapiens, MOLM-13; incubated for 72 hours; read-out: MOLM-13 IC50
Procedure: as §1, §2

[6] = system: TEL-cKIT-BaF3 (stably expressing cKIT kinase); assay: Cell proliferation, Cell Titer-Glo, TEL-cKIT-BaF3; format: cell-based; conditions: Mus musculus; incubated for 72 hours
Procedure: as §1, §2

[7] = system: TEL-BaF3-BLK (stably expressing BLK kinase); assay: Cell proliferation, Cell Titer-Glo, TEL-BaF3-BLK; format: cell-based; conditions: Mus musculus; incubated for 72 hours
Procedure: as §1, §2

[8] = system: TEL-BaF3-BMX (stably expressing BMX kinase); assay: Cell proliferation, Cell Titer-Glo, TEL-BaF3-BMX; format: cell-based; conditions: Mus musculus; incubated for 72 hours
Procedure: as §1, §2

[9] = Mus musculus, 72 h, incubated for 72 hours, read-out: TEL-BaF3-FLT3/ITD IC50
[10] = MV4-11, incubated for 72 hours, read-out: MV4-11 IC50

Structure (SMILES)	IC50 [3] [µM]	IC50 [2, 9] [µM]	IC50 [4] [µM]	IC50 [1, 10] [µM]	IC50 [5] [µM]	other results
CC(C)C[C@@H](N)C(=O)N[C@H]1CC[C@H](n2nc(-c3ccc(Oc4ccccc4)cc3)c3c(N)ncnc32)CC1 (stereo in doubt) [Compound 85, (R)-2-amino-N-(4-(4-amino-3-(4-phenoxyphenyl)-1H-pyrazolo[3,4-d]pyrimidin-1-yl)trans-1,4-cyclohexyl)-4-methylpentanamide hydrochloride]	0.95	–	–	–	–	IC50 ([1]; MV4-11, 72 h, read-out: MV4-11 IC50 [μM]): 0.51 µM; IC50 ([2]; Mus musculus, 72 h, read-out: TEL-BaF3-FLT3/ITD IC50 [μM], incubated for 72 hours): 0.082 µM
Nc1ncnc2c1c(-c1ccc(Oc3ccccc3)cc1)nn2[C@@H]1CCCN(S(=O)(=O)C(F)(F)F)C1 [Compound 3, (R)-3-(4-phenoxyphenyl)-1-(1-((trifluoromethyl)sulfonyl)piperidin-3-yl)-1H-pyrazolo[3,4-d]pyrimidin-4-amine]	–	1.8	> 10	–	–	–
Nc1ncnc2c1c(-c1ccc(Oc3ccccc3)cc1)nn2[C@@H]1CCCN(C(=O)c2cccnc2)C1 [Compound 13, (R)-(3-(4-amino-(4-phenoxyphenyl)-1H-pyrazolo[3,4-d]pyrimidin-1-yl)piperidin-1-yl)(pyridin-3-yl)methanone]	–	0.45	> 10	–	–	–
Nc1ncnc2c1c(-c1ccc(Oc3ccccc3)cc1)nn2[C@@H]1CCCN(C(=O)c2cncnc2)C1 [Compound 15, (R)-(3-(4-amino-(4-phenoxyphenyl)-1H-pyrazolo[3,4-d]pyrimidin-1-yl)piperidin-1-yl)(pyrimidin-5-yl)methanone]	–	0.2	> 10	–	–	–
COC(=O)c1ccc(C(=O)N2CCC[C@@H](n3nc(-c4ccc(Oc5ccccc5)cc4)c4c(N)ncnc43)C2)cc1 [Compound 16, (R)-methyl 4-(3-(4-amino-(4-phenoxyphenyl)-1H-pyrazolo[3,4-d]pyrimidin-1-yl)piperidine-1-carbonyl)benzoate]	–	6	> 10	–	–	–
Nc1ccc(C(=O)N2CCC[C@@H](n3nc(-c4ccc(Oc5ccccc5)cc4)c4c(N)ncnc43)C2)cn1 [Compound 17, (R)-(3-(4-amino-(4-phenoxyphenyl)-1H-pyrazolo[3,4-d]pyrimidin-1-yl)piperidin-1-yl)(6-aminopyridin-3-yl)methanone]	–	0.88	> 10	–	–	–
Nc1ncnc2c1c(-c1ccc(Oc3ccccc3)cc1)nn2[C@@H]1CCCN(C(=O)c2ccc3c(c2)OCO3)C1 [Compound 18, (R)-(3-(4-amino-(4-phenoxyphenyl)-1H-pyrazolo[3,4-d]pyrimidin-1-yl)piperidin-1-yl)-(3,4-methylenedioxyphenyl)mathanone]	–	1.8	> 10	–	–	–
Nc1ncnc2c1c(-c1ccc(Oc3ccccc3)cc1)nn2[C@@H]1CCCN(C(=O)C2CCNCC2)C1 [Compound 19, (R)-(3-(4-amino-(4-phenoxyphenyl)-1H-pyrazolo[3,4-d]pyrimidin-1-yl)piperidin-1-yl)-4-piperidinmethanone]	–	0.79	> 10	–	–	–
Nc1ncc(C(=O)N2CCC[C@@H](n3nc(-c4ccc(Oc5ccccc5)cc4)c4c(N)ncnc43)C2)cn1 [Compound 21, (R)-(3-(4-amino-(4-phenoxyphenyl)-1H-pyrazolo[3,4-d]pyrimidin-1-yl)piperidin-1-yl)(2-aminopyrimidin-5-yl)methanone]	–	0.33	> 10	–	–	–
C[C@@H](N)C(=O)N1CCC[C@@H](n2nc(-c3ccc(Oc4ccccc4)cc3)c3c(N)ncnc32)C1 [Compound 24, (R)-2-amino-1-((R)-3-(4-amino-(4-phenoxyphenyl)-1H-pyrazolo[3,4-d]pyrimidin-1-yl)piperidin-1-yl)propan-1-one]	–	–	7.8	–	–	IC50 ([2]; incubated for 72 hours, read-out: TEL-BaF3-FLT3/ITD IC50): 0.67 µM
NC(=O)CC[C@H](N)C(=O)N1CCC[C@@H](n2nc(-c3ccc(Oc4ccccc4)cc3)c3c(N)ncnc32)C1 [Compound 56]	> 10	0.49	–	0.24	0.71	–
CN1CCN(CCC(=O)N2CCC[C@@H](n3nc(-c4ccc(Oc5ccccc5)cc4)c4c(N)ncnc43)C2)CC1 [Compound 58]	3.72	0.094	–	0.058	0.19	IC50 [6]: 7.4 µM; IC50 [7]: 0.15 µM; IC50 [8]: 0.27 µM
CC(C)(C)OC(=O)NCC(=O)N1CCC[C@@H](n2nc(-c3ccc(Oc4ccccc4)cc3)c3c(N)ncnc32)C1 [Compound 59, (R)-tert-butyl 2-(3-(4-amino-3-(4-phenoxyphenyl)-1H-pyrazolo[3,4-d]pyrimidin-1-yl)piperidin-1-yl)-2-oxoethylcarbamate]	9.29	0.18	–	0.429	0.775	–
CC(C)C[C@@H](O)C(=O)N1CCC[C@@H](n2nc(-c3ccc(Oc4ccccc4)cc3)c3c(N)ncnc32)C1 [Compound 61, (R)-1-((R)-3-(4-amino-(4-phenoxyphenyl)-1H-pyrazolo[3,4-d]pyrimidin-1-yl)piperidin-1-yl)-2-hydroxyl-4-methylpentan-1-one]	7.21	0.48	–	0.948	2.12	–
NCCCCC(=O)N1CCC[C@@H](n2nc(-c3ccc(Oc4ccccc4)cc3)c3c(N)ncnc32)C1 [Compound 62]	8.46	0.41	–	0.38	1.2	–
CCCCC(O)C(=O)N1CCC[C@@H](n2nc(-c3ccc(Oc4ccccc4)cc3)c3c(N)ncnc32)C1 (some centres unmarked) [Compound 63]	4.69	0.15	–	0.35	0.72	–
CC(C)(C)OC(=O)NCC(=O)N1CC[C@@H](n2nc(-c3ccc(Oc4ccccc4)cc3)c3c(N)ncnc32)C1 [Compound 66, (R)-tert-butyl 2-(3-(4-amino-(4-phenoxyphenyl)-1H-pyrazolo[3,4-d]pyrimidin-1-yl)pyrrolidin-1-yl)-2-oxoethylcarbamate]	6.34	0.16	–	0.73	1.6	–
CS(=O)(=O)N1CC[C@@H](n2nc(-c3ccc(Oc4ccccc4)cc3)c3c(N)ncnc32)C1 [Compound 67, (R)-1-(1-(methylsulfonyl)pyrrolidin-3-yl)-3-(4-phenoxyphenyl)-1H-pyrazolo[3,4-d]pyrimidin-4-amine]	> 10	0.13	–	0.42	1.46	–
CN(C)CC(=O)N1CCC(n2nc(-c3ccc(Oc4ccccc4)cc3)c3c(N)ncnc32)CC1 [Compound 72, 1-(4-(4-amino-(4-phenoxyphenyl)-1H-pyrazolo[3,4-d]pyrimidin-1-yl)piperidin-1-yl)-2-(dimethylamino)ethanone]	3.65	0.075	–	–	–	–
CS(=O)(=O)N1CCC(n2nc(-c3ccc(Oc4ccccc4)cc3)c3c(N)ncnc32)CC1 [Compound 73, 1-(1-(methylsulfonyl)piperidin-4-yl)-3-(4-phenoxyphenyl)-1H-pyrazolo[3,4-d]pyrimidin-4-amine]	> 10	0.19	–	–	–	–
CC(C)C[C@@H](N)C(=O)N1CCC(n2nc(-c3ccc(Oc4ccccc4)cc3)c3c(N)ncnc32)CC1 [Compound 74, (R)-2-amino-1-(4-(4-amino-(4-phenoxyphenyl)-1H-pyrazolo[3,4-d]pyrimidin-1-yl)piperidin-1-yl)-4-methylpentan-1-one]	0.59	0.075	–	–	–	–
